{"source": "patent US20090022789A1", "about": "(Supernus Pharmaceuticals, Inc., priority 2007, published 2009)", "origin": "cited, not measured here", "details": "oral administration, IR form", "data": [{"smiles": "Nc1nnc(-c2cccc(Cl)c2Cl)c(N)n1", "note": "[lamotrigine, 3,5-diamino-6-(2,3-dichlorophenyl)-as-triazine]", "values": [{"measurement": "first-pass metabolism", "result": "negligible"}]}]}
